Measurements published in US7691858B2, “Kinase inhibitors and methods of use thereof” (TargeGen, Inc., priority 2006, dated 2010).
Counter-ions that a name gives are not always drawn.

How the values were obtained:
VEGF-induced edema = assay: Miles assay, VEGF as agonist; format: in vivo, Sprague-Dawley rats; details: vehicle 12; for Score (scale of 0-12): VEGF 200 ng/site, lower score = greater anti-edema activity; for Score with VEGF as agonist (scale of 0-12): 1.5 mg/kg, VEGF 200 ng/injection site
Description: A rodent model of vascular edema, the Miles assay, was used to screen compounds for their ability to inhibit VEGF-induced edema. […] Sprague-Dawley rats were first injected IV with vehicle alone or test agent, followed by IV injection of Evans blue dye, followed by intradermal injections of saline and VEGF (200 ng/injection site) along both shaved flanks.

[1] = molecular target: T1, human p120γ subunit of PI3K (Homo sapiens, UniProt P48736); assay: PI3K enzymatic activity at two concentrations (Upstate Group); format: biochemical; details: 100% = no inhibition, 0% = complete inhibition
T1 construct: purchased Upstate Group, Charlottesville, Va; (contract assay)
Description: The ability of compounds to inhibit the activity of PI3K kinase was determined using biochemical assays. In a first assay, compounds were tested at two concentrations (0.5 and 5 μM) for their ability to inhibit enzymatic activity of the human p120γ subunit of PI3K (the assay being performed under contract by Upstate Group, Charlottesville, Va.).

myocardial infarct = assay: Rodent model of acute myocardial infarct (LAD occlusion/reperfusion); format: in vivo, Sprague-Dawley rats
Description: A rodent model of acute myocardial infarct, in which the proximal left anterior descending coronary artery (LAD) is occluded for 60 min followed by reperfusion, was used to determine whether test agents reduced infarct size at 24 hours.
Myocardial infarcts were created in Sprague-Dawley rats (200-300 g body weight) by a 60 min occlusion of the LAD followed by LAD reperfusion. […] At 24 hr post-treatment, the ischemic zone (area at-risk, AAR) was delineated by re-ligation of the LAD followed by IV injection of alkali blue dye, after which hearts were sectioned along the short axis and stained using triphenyltetrazolium chloride to delineate viable from infarcted myocardium. Photographic images were then analyzed using morphometric software to calculate infarct area as a percent of the at-risk area.
Rodent MI model: All animal studies followed current “NIH Guidelines for the Use of Laboratory Animals” and were performed according to IACUC-approved protocols. Sprague-Dawley rats (275-300 g) were anesthetized using inhaled isoflurane after which chest walls were shaved and swabbed with iodine. Animals were then intubated and maintained on 2% isoflurane (delivered in 30% O2/70% N2), with optimal respiratory rate and stroke volumes set by a volume-controlled safety ventilator (Inspira Advanced Safety Ventilator; Harvard Apparatus, Holliston, Mass.). Body temperatures were maintained at 35-37° C. using heating pads and five-lead electrocardiograms established. For each animal, a left thoracotomy was performed at the third intercostal space, the heart was exposed and a suture snare tightened around the LAD at the point it appeared from beneath the left atrium. Ischemia was confirmed from blanching of the left ventricle (LV) as well as changes in ECG patterns. After the desired period of occlusion (60 min in the standard model), the suture snare was loosened to allow complete reperfusion (but retained in place using shallow sutures) and the chest closed in layers. […].
For infarct size determination, LAD occlusion was repeated on each animal 24 hr after the initial occlusion. The ischemic zone (area-at-risk or AAR) was then delineated by i.v. injection of Evans blue dye (5 ml of a 10% saline solution containing 100 U/ml sodium heparin). The heart was explanted, atria and right ventricle trimmed free, and the LV (septal and free walls) frozen at −20° C. to induce rigor. After thawing on ice, the LV was subdivided into six 2 mm thick sections along the short axis using a metal form to guide dissection. Heart sections were stained for 20 min in 37° C. triphenyltetrazolium chloride (TTC, 2% in 0.04 M K2HPO4/0.17 M sucrose) to delineate viable from infarcted myocardium, fixed for 20 min in 10% formalin, then rinsed in saline. For each section, photographs were taken of both anterior and posterior surfaces and these images analyzed (by personnel blinded as to treatment identity) using a morphometric software package (Image Pro Plus; Media Cybernetics, Silver Spring, Md.). The following areas were calculated, based on their differing pixel densities: non-ischemic zone (Evans blue-stained), viable-but-ischemic zone (free of Evans blue but TTC-stained), and infarct-within-ischemic zone (free of both Evans blue and TTC stain). Area values for anterior and posterior views were averaged, and these values used to calculate the following AAR=Viable-but-ischemic Area+Infarct Area Equation 1 Total LV Area=AAR+Non-ischemic Area Equation 2

cerebral infarct = assay: Rodent model of cerebral stroke (permanent middle cerebral artery occlusion); format: in vivo, mice; details: 1 mg/kg BW IV 60 min after ligation; for % Infarct reduction: vs vehicle; for Infarct area in mm^3 (mean ± SEM): 24 hours
Description: A rodent model of cerebral stroke, in which the middle cerebral artery is permanently occluded, was used to determine whether test agents reduced infarct size at 24 hours.
Cerebral strokes were created in mice by permanent ligation of the middle cerebral artery using a cauterizing tool, followed 60 min later by IV injection of either vehicle alone (50% PEG400 in water) or test agents (at 1 mg/kg BW). Twenty four hours later, brains were sectioned and stained using triphenyltetrazolium chloride to delineate viable from infarcted tissue. Photographic images were then analyzed using morphometric software to calculate infarct area.

histamine-induced edema = assay: Miles assay, histamine as agonist; format: in vivo, Sprague-Dawley rats; details: 1.5 mg/kg; histamine 10 μg/injection site; vehicle 12
Description: Sprague-Dawley rats were first injected IV with vehicle alone or test agent, followed by IV injection of Evans blue dye, followed by intradermal injections of saline and VEGF (200 ng/injection site) along both shaved flanks. […] The ability of test agents to influence edema induced by agonists other than VEGF was also tested. Compounds cited in this application inhibited edema formation induced using histamine as an agonist, for example, as shown below. The ability of test agent to influence vascular edema was tested as above, except that the ability to block edema was tested using either VEGF or histamine as the agonist (200 ng and 10 μg/injection site, respectively).

[2] = 1.5 mg/kg BW IV at 90 min post-reperfusion, 24 hr
[3] = 1.5 mg/kg BW IV at 90 min post-reperfusion, vs vehicle

T1 sequence (P48736 whole entry): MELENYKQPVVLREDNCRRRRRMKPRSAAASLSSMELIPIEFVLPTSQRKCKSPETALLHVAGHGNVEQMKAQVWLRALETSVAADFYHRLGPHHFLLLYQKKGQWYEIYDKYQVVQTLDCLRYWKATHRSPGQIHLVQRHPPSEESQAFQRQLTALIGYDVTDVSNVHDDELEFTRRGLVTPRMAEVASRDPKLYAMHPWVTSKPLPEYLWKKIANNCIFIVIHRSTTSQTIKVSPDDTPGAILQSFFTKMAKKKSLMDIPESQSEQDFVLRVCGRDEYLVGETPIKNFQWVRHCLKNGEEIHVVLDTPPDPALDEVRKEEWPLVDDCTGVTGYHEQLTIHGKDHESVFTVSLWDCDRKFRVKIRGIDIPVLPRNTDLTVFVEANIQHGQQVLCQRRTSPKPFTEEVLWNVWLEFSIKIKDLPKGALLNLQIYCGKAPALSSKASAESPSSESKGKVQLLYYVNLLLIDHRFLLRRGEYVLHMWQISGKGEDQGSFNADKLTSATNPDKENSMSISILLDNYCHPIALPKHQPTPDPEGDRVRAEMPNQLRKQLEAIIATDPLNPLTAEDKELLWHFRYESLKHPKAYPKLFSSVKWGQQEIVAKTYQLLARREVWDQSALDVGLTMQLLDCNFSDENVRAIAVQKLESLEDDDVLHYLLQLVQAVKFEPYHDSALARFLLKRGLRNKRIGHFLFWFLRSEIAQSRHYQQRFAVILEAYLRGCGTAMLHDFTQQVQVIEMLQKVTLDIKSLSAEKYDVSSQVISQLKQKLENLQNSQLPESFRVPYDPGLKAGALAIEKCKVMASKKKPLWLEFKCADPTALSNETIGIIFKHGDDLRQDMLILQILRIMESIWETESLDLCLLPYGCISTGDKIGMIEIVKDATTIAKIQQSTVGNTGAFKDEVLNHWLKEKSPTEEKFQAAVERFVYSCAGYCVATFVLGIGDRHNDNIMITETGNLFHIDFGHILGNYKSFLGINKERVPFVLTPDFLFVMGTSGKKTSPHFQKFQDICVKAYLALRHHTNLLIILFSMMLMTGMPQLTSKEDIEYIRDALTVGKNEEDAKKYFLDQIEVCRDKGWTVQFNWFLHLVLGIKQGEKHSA

Nc1cncc2nc(-c3ccc(O)c(O)c3)c(-c3ccc(O)c(O)c3)nc12 [2,3-(3,4-Dihydroxyphenyl)-pyrido[3,4-b]pyrazin-8-ylamine]
Score (scale of 0-12) (VEGF-induced edema; 0.01 mg/kg IV): 6

Nc1cncc2nc(-c3cccc(O)c3)c(-c3cccc(O)c3)nc12 [3,3′-(8-aminopyrido[3,4-]pyrazine-2,3-diyl)diphenol]
Percent Control Value at 0.5 μM ([1]; 0.5 μM): 101%
Percent Control Value at 5 μM ([1]; 5 μM): 90%

O=C(Nc1cc2ccccc2[nH]1)c1cc(O)c(O)c(O)c1 [3,4,5-Trihydroxy-N-(1H-indol-2-yl)-benzamide]
Score with VEGF as agonist (scale of 0-12) (VEGF-induced edema): 5

O=C(Nc1ccccc1-c1cc2ccccc2[nH]1)c1cc(O)c(O)c(O)c1 [3,4,5-Trihydroxy-N-[2-(1H-indol-2-yl)-phenyl]-benzamide]
Score with VEGF as agonist (scale of 0-12) (VEGF-induced edema): 4

O=C(CCc1ccc(O)cc1)Nc1ccccc1-c1cc2ccccc2[nH]1 [3-(4-Hydroxy-phenyl)-N-[2-(1H-indol-2-yl)-phenyl]-propionamide]
Score (scale of 0-12) (VEGF-induced edema; 1.5 mg/kg IV): 2

Cl.Cl.Nc1nc(N)c2nc(-c3cccc(O)c3)c(-c3cccc(O)c3)nc2n1 [3-[2,4-diamino-6-(3-hydroxyphenyl)pteridin-7-yl] phenol dihydrochloride salt]
Score (scale of 0-12) (VEGF-induced edema; 0.01 mg/kg IV): 3
Score (scale of 0-12) (VEGF-induced edema; 0.1 mg/kg IV): 4
Score (scale of 0-12) (VEGF-induced edema; 1 mg/kg IV): 4
Infarct (% AAR, mean ± SEM) (myocardial infarct; 0.1 mg/kg BW IV at 90 min post-reperfusion, 24 hr): 37.7 ± 5.8 % AAR
% Infarct reduction (myocardial infarct; 0.1 mg/kg BW IV at 90 min post-reperfusion, vs vehicle): 30%
% Infarct reduction (myocardial infarct; 0.1 mg/kg, administration 60 and 240 min post-occlusion): 55%
Infarct (% AAR, mean ± SEM) (myocardial infarct; 0.1 mg/kg, administration 60 and 240 min post-occlusion, vehicle 54.0 ± 2.9): 24.2 ± 4.9 % AAR
% Infarct reduction (myocardial infarct; 0.1 mg/kg, administration 60 min post-occlusion): 60%
Infarct (% AAR, mean ± SEM) (myocardial infarct; 0.1 mg/kg, administration 60 min post-occlusion, vehicle 54.0 ± 2.9): 21.6 ± 5.7 % AAR
% Infarct reduction (myocardial infarct; 0.1 mg/kg, administration 120 min post-occlusion): 65%
Infarct (% AAR, mean ± SEM) (myocardial infarct; 0.1 mg/kg, administration 120 min post-occlusion, vehicle 54.0 ± 2.9): 18.8 ± 5.6 % AAR
% Infarct reduction (myocardial infarct; 0.1 mg/kg, administration 240 min post-occlusion): 65%
Infarct (% AAR, mean ± SEM) (myocardial infarct; 0.1 mg/kg, administration 240 min post-occlusion, vehicle 54.0 ± 2.9): 19.1 ± 4.0 % AAR
Infarct (% AAR, mean ± SEM) (myocardial infarct; 1.0 mg/kg BW IV at 90 min post-reperfusion, 24 hr): 46.4 ± 2.6 % AAR
% Infarct reduction (myocardial infarct; 1.0 mg/kg BW IV at 90 min post-reperfusion, vs vehicle): Not significant

O=C(Nc1ccccc1-c1cc2ccccc2[nH]1)c1cccnc1C(=O)O [3-[2-(1H-Indol-2-yl)-phenylcarbamoyl]-pyridine-2-carboxylic acid]
Score (scale of 0-12) (VEGF-induced edema; 0.5 mg/kg IV): 5

Nc1nc(N)c2nc(-c3ccc(O)cc3)cnc2n1 [4-(2,4-Diamino-pteridin-6-yl)-phenol (sulfate salt)]
Score (scale of 0-12) (VEGF-induced edema; 5 mg/kg IV): 2

Cl.Nc1ncnc2nc(-c3ccc(O)c(O)c3)c(-c3ccc(O)c(O)c3)nc12 [4-[4-amino-6-(3,4-dihydroxyphenyl)pteridin-7-yl]benzene-1,2-diol chloride salt]
Score (scale of 0-12) (VEGF-induced edema; 0.01 mg/kg IV): 6
Score (scale of 0-12) (VEGF-induced edema; 0.1 mg/kg IV): 3
Score (scale of 0-12) (VEGF-induced edema; 1 mg/kg IV): 5

Nc1nc(N)c2nc(CNCc3ccc(O)c(O)c3)cnc2n1 [4-{[(2,4-Diamino-pteridin-6-ylmethyl)-amino]-methyl}-benzene-1,2-diol]
Score (scale of 0-12) (VEGF-induced edema; 5 mg/kg IV): 4

Nc1ncnc2nc(-c3ccccn3)c(-c3ccccn3)nc12 [6,7-Di-pyridin-2-yl-pteridin-4-ylamine]
% Infarct reduction (cerebral infarct): Not significant

Oc1ncnc2nc(-c3ccccc3)c(-c3ccccc3)nc12 [6,7-Diphenyl-pteridin-4-ol]
Score with VEGF as agonist (scale of 0-12) (VEGF-induced edema): 3

Cl.Nc1nc(N)c2nc(-c3ccc(O)c(O)c3)c(-c3ccc(O)c(O)c3)nc2n1 [6,7-bis(3,4-dihydroxyphenyl)-pteridine-2,4,-diamine, hydrochloride salt]
Infarct (% AAR, mean ± SEM) (myocardial infarct; [2]): 36.3 ± 6.3 % AAR
% Infarct reduction (myocardial infarct; [3]): 33%

Nc1ncnc2nc(-c3ccc(O)cc3)c(-c3ccc(O)cc3)nc12.O=S(=O)(O)O [6,7-bis(4-hydroxyphenyl)-pteridin-4-ylamine sulfate salt]
Score with histamine as agonist (scale of 0-12) (histamine-induced edema): 3
Score with VEGF as agonist (scale of 0-12) (VEGF-induced edema): 4
Infarct (% AAR, mean ± SEM) (myocardial infarct; [2]): 60.6 ± 1.8 % AAR
% Infarct reduction (myocardial infarct; [3]): 20%
Infarct area in mm^3 (mean ± SEM) (cerebral infarct): 18.3 ± 2.6 mm^3
% Infarct reduction (cerebral infarct): 53%

Nc1nc(N)c2nc(CNCc3ccccn3)cnc2n1 [6-{[(Pyridin-2-ylmethyl)-amino]-methyl}-pteridine-2,4-diamine]
Score (scale of 0-12) (VEGF-induced edema; 0.1 mg/kg IV): 4

Cc1ccc(-c2nn(C(C)(C)C)c3ncnc(N)c23)cc1 [PP1, reference compound]
Infarct area in mm^3 (mean ± SEM) (cerebral infarct): 35.4 ± 6.4 mm^3
% Infarct reduction (cerebral infarct): Not significant

CN(C)S(=O)(=O)c1ccc2c(c1)/C(=C/c1cc3c([nH]1)CCCC3)C(=O)N2 [SU6656, reference compound]
% Infarct reduction (cerebral infarct): Not significant
